Experimental data: patent US20230406843A1, “Progranulin Modulators and Methods of Using the Same” (ARKUDA THERAPEUTICS, priority 2020, published 2023)

Tested on: progranulin
Assay: Progranulin induction cellular assay (ELISA of secreted mouse PGRN)
Format: cell-based
Conditions: progranulin induction assay; mouse pMG, primary cortical neurons and BV-2 cell lines named, cell type not given; ELISA-based readout; read-out: EC50
Procedure: Cellular Assays: Progranulin induction assay. To measure the efficacy of compounds, a progranulin induction cellular assay in mouse primary microglia (pMG), primary cortical neurons, and BV-2 cell lines is used. BV-2 cells are split the day before plating into a 96 well plate format at approximately 80%. Cells should be plated the day before and allowed for 1 hour attachment period and for 16 hour incubation. Levels of progranulin secreted into the cell culture medium or retained in the cell lysate can be quantified using an ELISA-based readout and measurement of secreted mouse PGRN in the medium was assessed by the methodology published by Ghidoni et al. 2012. Standard ELISA kits to measure PGRN are available from vendors such as Adipogen, R&D, and Biovendor.
Table B below presents the results of a progranulin induction assay as described above.

Structure (SMILES)	EC50
CCNC[C@@]1(O)CO[C@@H](C(=O)N2CCc3ccccc3[C@@H]2c2ccc(F)cc2)C1 [Compound 5037, ((2R,4R)-4-((ethylamino)methyl)-4-hydroxytetrahydrofuran-2-yl)((S)-1-(4-fluorophenyl)-3,4-dihydroisoquinolin-2(1H)-yl)methanone]	339 nM
N[C@H]1CO[C@@H](C(=O)N2CCc3ccccc3[C@@H]2c2ccc(F)cc2)OC1 [Compound 5049, (cis-5-amino-1,3-dioxan-2-yl)((S)-1-(4-fluorophenyl)-3,4-dihydroisoquinolin-2(1H)-yl)methanone]	258 nM
CCN[C@H]1CO[C@@H](C(=O)N2CCc3ccccc3[C@@H]2c2ccc(F)cc2)OC1 [Compound 5050, (cis-5-(ethylamino)-1,3-dioxan-2-yl)((S)-1-(4-fluorophenyl)-3,4-dihydroisoquinolin-2(1H)-yl)methanone]	350 nM
N[C@@H]1CO[C@@H](C(=O)N2CCc3ccccc3[C@@H]2c2ccc(F)cc2)C[C@@H]1O [Compound 5052, ((2R,4S,5R)-5-amino-4-hydroxytetrahydro-2H-pyran-2-yl)((S)-1-(4-fluorophenyl)-3,4-dihydroisoquinolin-2(1H)-yl)methanone]	18 nM
N[C@H]1C[C@H](C(=O)N2CCc3ccccc3[C@@H]2c2ccc(F)cc2)OC[C@@H]1O [Compound 5055, ((2R,4S,5R)-4-amino-5-hydroxytetrahydro-2H-pyran-2-yl)((S)-1-(4-fluorophenyl)-3,4-dihydroisoquinolin-2(1H)-yl)methanone]	56 nM
N[C@H]1C[C@@H](C(=O)N2CCc3ccccc3[C@@H]2c2ccc(F)cc2)OC[C@H]1O [Compound 5058, ((2S,4S,5S)-4-amino-5-hydroxytetrahydro-2H-pyran-2-yl)((S)-1-(4-fluorophenyl)-3,4-dihydroisoquinolin-2(1H)-yl)methanone]	290 nM
N[C@H]1CO[C@H](C(=O)N2CCc3ccccc3[C@@H]2c2ccc(F)cc2)C[C@@H]1F [Compound 5059, ((2S,4S,5S)-5-amino-4-fluorotetrahydro-2H-pyran-2-yl)((S)-1-(4-fluorophenyl)-3,4-dihydroisoquinolin-2(1H)-yl)methanone]	344 nM
N[C@H]1CO[C@H](C(=O)N2CCc3ccccc3[C@@H]2c2ccc(F)cc2)CC1(F)F [Compound 5060, ((2S,5S)-5-amino-4,4-difluorotetrahydro-2H-pyran-2-yl)((S)-1-(4-fluorophenyl)-3,4-dihydroisoquinolin-2(1H)-yl)methanone]	5850 nM
CO[C@@H]1CO[C@@H](C(=O)N2CCc3ccccc3[C@@H]2c2ccc(F)cc2)C[C@@H]1N [Compound 5062, ((2R,4S,5S)-4-amino-5-methoxytetrahydro-2H-pyran-2-yl)((S)-1-(4-fluorophenyl)-3,4-dihydroisoquinolin-2(1H)-yl)methanone]	49 nM
CCO[C@@H]1CO[C@@H](C(=O)N2CCc3ccccc3[C@@H]2c2ccc(F)cc2)C[C@@H]1N [Compound 5063, ((2R,4S,5S)-4-amino-5-ethoxytetrahydro-2H-pyran-2-yl)((S)-1-(4-fluorophenyl)-3,4-dihydroisoquinolin-2(1H)-yl)methanone]	35 nM
N[C@H]1C[C@H](C(=O)N2CCc3ccccc3[C@@H]2c2ccc(F)cc2)OC[C@@H]1F [Compound 5069, ((2R,4S,5R)-4-amino-5-fluorotetrahydro-2H-pyran-2-yl)((S)-1-(4-fluorophenyl)-3,4-dihydroisoquinolin-2(1H)-yl)methanone]	142 nM
N[C@@H]1C[C@H](C(=O)N2CCc3ccccc3[C@@H]2c2ccc(F)cc2)OC[C@@H]1O [Compound 5074, ((2R,4R,5R)-4-amino-5-hydroxytetrahydro-2H-pyran-2-yl)((S)-1-(4-fluorophenyl)-3,4-dihydroisoquinolin-2(1H)-yl)methanone]	230 nM
N[C@H]1CO[C@@H](C(=O)N2CCc3ccccc3[C@@H]2c2ccc(F)cc2)C[C@H]1F [Compound 5075, ((2R,4R,5S)-5-amino-4-fluorotetrahydro-2H-pyran-2-yl)((S)-1-(4-fluorophenyl)-3,4-dihydroisoquinolin-2(1H)-yl)methanone]	529 nM
C[C@H]1C[C@@H](C(=O)N2CCc3ccccc3[C@@H]2c2ccc(F)cc2)OC[C@@H]1N [Compound 5076, ((2S,4S,5R)-5-amino-4-methyltetrahydro-2H-pyran-2-yl)((S)-1-(4-fluorophenyl)-3,4-dihydroisoquinolin-2(1H)-yl)methanone]	321 nM

Continued by falling EC50, values first:

EC50	Structure (SMILES)
575 nM	N[C@H]1CO[C@H](C(=O)N2CCc3ccccc3[C@@H]2c2ccc(F)cc2)OC1 [Compound 5048, (trans-5-amino-1,3-dioxan-2-yl)((S)-1-(4-fluorophenyl)-3,4-dihydroisoquinolin-2(1H)-yl)methanone]
478 nM	N[C@@H]1CO[C@@H](C(=O)N2CCc3ccccc3[C@@H]2c2ccc(F)cc2)C[C@H]1F [Compound 5061, ((2R,4R,5R)-5-amino-4-fluorotetrahydro-2H-pyran-2-yl)((S)-1-(4-fluorophenyl)-3,4-dihydroisoquinolin-2(1H)-yl)methanone]
376 nM	N[C@@H]1C[C@@H](C(=O)N2CCc3ccccc3[C@@H]2c2ccc(F)cc2)OC[C@H]1O [Compound 5068, ((2S,4R,5S)-4-amino-5-hydroxytetrahydro-2H-pyran-2-yl)((S)-1-(4-fluorophenyl)-3,4-dihydroisoquinolin-2(1H)-yl)methanone]
324 nM	N[C@H]1CO[C@@H](C(=O)N2CCc3ccccc3[C@@H]2c2ccc(F)cc2)C[C@H]1O [Compound 5065, ((2R,4R,5S)-5-amino-4-hydroxytetrahydro-2H-pyran-2-yl)((S)-1-(4-fluorophenyl)-3,4-dihydroisoquinolin-2(1H)-yl)methanone]
294 nM	O=C([C@H]1C[C@](O)(CNCCO)CO1)N1CCc2ccccc2[C@@H]1c1ccc(F)cc1 [Compound 5041, ((S)-1-(4-fluorophenyl)-3,4-dihydroisoquinolin-2(1H)-yl)((2R,4S)-4-hydroxy-4-(((2-hydroxyethyl)amino)methyl)tetrahydrofuran-2-yl)methanone]
159 nM	CO[C@H]1CO[C@@H](C(=O)N2CCc3ccccc3[C@@H]2c2ccc(F)cc2)C[C@H]1N [Compound 5073, ((2R,4R,5R)-4-amino-5-methoxytetrahydro-2H-pyran-2-yl)((S)-1-(4-fluorophenyl)-3,4-dihydroisoquinolin-2(1H)-yl)methanone]
153 nM	N[C@H]1CO[C@@H](C(=O)N2CCc3ccccc3[C@@H]2c2ccc(F)cc2)C[C@@H]1O [Compound 5070, ((2R,4S,5S)-5-amino-4-hydroxytetrahydro-2H-pyran-2-yl)((S)-1-(4-fluorophenyl)-3,4-dihydroisoquinolin-2(1H)-yl)methanone]
133 nM	N[C@@H]1CO[C@@H](C(=O)N2CCc3ccccc3[C@@H]2c2ccc(F)cc2)C[C@H]1O [Compound 5057, ((2R,4R,5R)-5-amino-4-hydroxytetrahydro-2H-pyran-2-yl)((S)-1-(4-fluorophenyl)-3,4-dihydroisoquinolin-2(1H)-yl)methanone]
130 nM	N[C@@H]1C[C@@H](C(=O)N2CCc3ccccc3[C@@H]2c2ccc(F)cc2)OC[C@@H]1O [Compound 5054, ((2S,4R,5R)-4-amino-5-hydroxytetrahydro-2H-pyran-2-yl)((S)-1-(4-fluorophenyl)-3,4-dihydroisoquinolin-2(1H)-yl)methanone]
127 nM	N[C@H]1CO[C@H](C(=O)N2CCc3ccccc3[C@@H]2c2ccc(F)cc2)C[C@@H]1O [Compound 5056, ((2S,4S,5S)-5-amino-4-hydroxytetrahydro-2H-pyran-2-yl)((S)-1-(4-fluorophenyl)-3,4-dihydroisoquinolin-2(1H)-yl)methanone]
102 nM	N[C@@H]1CO[C@@H](C(=O)N2CCc3ccccc3[C@@H]2c2ccc(F)cc2)C[C@@H]1F [Compound 5064, ((2R,4S,5R)-5-amino-4-fluorotetrahydro-2H-pyran-2-yl)((S)-1-(4-fluorophenyl)-3,4-dihydroisoquinolin-2(1H)-yl)methanone]
81 nM	N[C@@H]1CO[C@H](C(=O)N2CCc3ccccc3[C@@H]2c2ccc(F)cc2)C[C@H]1O [Compound 5072, ((2S,4R,5R)-5-amino-4-hydroxytetrahydro-2H-pyran-2-yl)((S)-1-(4-fluorophenyl)-3,4-dihydroisoquinolin-2(1H)-yl)methanone]
77 nM	N[C@@H]1CO[C@H](C(=O)N2CCc3ccccc3[C@@H]2c2ccc(F)cc2)C[C@@H]1O [Compound 5053, ((2S,4S,5R)-5-amino-4-hydroxytetrahydro-2H-pyran-2-yl)((S)-1-(4-fluorophenyl)-3,4-dihydroisoquinolin-2(1H)-yl)methanone]
64 nM	N[C@H]1CO[C@H](C(=O)N2CCc3ccccc3[C@@H]2c2ccc(F)cc2)C[C@H]1O [Compound 5043, ((2S,4R,5S)-5-amino-4-hydroxytetrahydro-2H-pyran-2-yl)((S)-1-(4-fluorophenyl)-3,4-dihydroisoquinolin-2(1H)-yl)methanone]
6 nM	N[C@H]1C[C@H](C(=O)N2CCc3ccccc3[C@@H]2c2ccc(F)cc2)OC[C@H]1O [Compound 5051, ((2R,4S,5S)-4-amino-5-hydroxytetrahydro-2H-pyran-2-yl)((S)-1-(4-fluorophenyl)-3,4-dihydroisoquinolin-2(1H)-yl)methanone]
3 nM	CO[C@H]1CO[C@@H](C(=O)N2CCc3ccccc3[C@@H]2c2ccc(F)cc2)C[C@@H]1N [Compound 5077, ((2R,4S,5R)-4-amino-5-methoxytetrahydro-2H-pyran-2-yl)((S)-1-(4-fluorophenyl)-3,4-dihydroisoquinolin-2(1H)-yl)methanone]
